Measurements: a melting point compilation (Tetko et al.; mined from patent text by program, amines drawn as free bases though some values may be those of a salt)

Row | SMILES | melting point [°C]
1 | COc1c(C=O)cccc1Oc1ccccc1C | 53 to 55
2 | CCOC(=O)C1=C(C)NC(C)=C(C(=O)OCC)C1c1cc([N+](=O)[O-])ccc1OCCCCNCC(O)COc1ccccc1 (centres undefined) | 141 to 143
3 | COc1ccc(C(=O)Nc2ccccc2)cc1Oc1ccccc1 | 200 to 201
4 | Cc1ccccc1CC(=NC#N)NC(NC(=O)Cc1cccc2ccccc12)C(C)(C)C (centres undefined) | 97 to 100
5 | CCCCCCOC(=O)c1cccc(-c2cn(C)cc(-n3cccn3)c2=O)c1 | 96 to 97
6 | CCOC(=O)c1onc(OCC)c1CN1C(=O)c2ccccc2C1=O | 93 to 94
7 | COc1ccc(N2CCN(c3ccc([N+](=O)[O-])cn3)CC2)cc1 | 165 to 166
8 | CCOCc1nc2c(N)nc3ccccc3c2n1CC1CCN(C)O1 (centres undefined) | 173 to 174
9 | COc1ccc(Cl)cc1C(=O)NCCc1ccc(C=CC(=O)O)cc1 | 197 to 198
10 | Cc1cc(C(=O)O)c2c(c1)C(C(Cl)(Cl)Cl)OC(C(Cl)(Cl)Cl)O2 (centres undefined) | 290 to 291
11 | Nc1ncc(CCc2ccccc2)cc1[N+](=O)[O-] | 145 to 146
12 | CC(C)(C)OC(=O)N(Cc1ccccc1)C1(CO)CC1 | 68
13 | CN1Cc2c(C(N)=NO)ncn2-c2cccc(Cl)c2C1=O | > 250
14 | Cc1nc2sccn2c(=O)c1CCN1CCC(n2ccc3ccccc32)CC1 | 134
15 | Cc1nc2nc(SCc3ccccc3)nn2c(C)c1C | 134 to 135
16 | O=C(O)CCc1oc(N2CCCC2)nc1-c1ccc(Cl)cc1 | 199 to 200
17 | COC(=O)c1cc(NCc2c(F)c(F)c(C(F)(F)F)c(F)c2F)ccc1O | 127
18 | CS(=O)(=O)c1ccc(C(CC2CCCC2)C(=O)O)cc1Cl (centres undefined) | 124 to 126
19 | CCNc1ncccc1-c1cscc1-c1cccnc1F | 127 to 129
20 | CC(C)c1cc(C2SCC(=O)N2CCCCl)cc(C(C)C)c1O (centres undefined) | 105 to 106
21 | CC(C)OC(=O)N1CC(=S)Nc2ccc(-c3cccc(Cl)c3)cc21 | 208 to 212
22 | NS(=O)(=O)c1cc(C(=O)OCC(=O)N2CCC[C@@H]2CO[N+](=O)[O-])c(NCc2ccco2)cc1Cl | 64 to 66
23 | CC12CCC3C(CC=C4CCCCC43C)C1CC(O)C2=O (centres undefined) | 168 to 172
24 | O=C(Nc1ccc(C(=O)Nc2ccc(Br)cn2)cn1)c1ccc(Br)nc1 | 245 to 247
25 | CNC(=O)N(C)c1nnc(C(C)(C)CCl)s1 | 159 to 161
26 | COc1cccc(OC)c1-c1ccc(C[C@H](NC(=O)c2c(Cl)ccc(-c3c(C)noc3C)c2Cl)C(=O)O)cc1 | 145

Row | SMILES | melting point [°C]
27 | COc1cc(OCc2ccccn2)ccc1/C=C/C(=O)CC(=O)/C=C/c1cc2ccccc2[nH]1 | 178 to 179
28 | COc1ccc2nc(-c3ccc(Cl)cc3)cn2c1 | 148 to 149
29 | N#CCCc1cccc(-c2ccc3cnc(Nc4ccc5c(c4)CCC(N4CCOCC4)CC5)nn23)c1 (centres undefined) | 184 to 186
30 | Nc1ccc(-n2cc(C(F)(F)F)ccc2=O)c(Cl)c1 | 136 to 138
31 | CCOC(=O)C(=CNc1cccnc1OC)C(=O)OCC | 65
32 | Cc1nc(-c2ccc(I)cc2)no1 | 121 to 122
33 | Cc1cc(-n2ccnc2)c2cccc(OCc3c(Cl)ccc(S(=O)(=O)N4CCCC4)c3Cl)c2n1 | 193
34 | Cc1ccc(-c2ccc3c(c2)C=C(C(=O)O)CO3)cc1 | 236 to 237
35 | COc1ccc(N2CCN(NC(=S)NCC(OC)OC)CC2)cc1 | 157
36 | Cc1ccc(-c2nn(C(C)(C)C(=O)N(C)C)cc2C)c(Cl)c1 | 126 to 128
37 | CCCCCCCC=CCCCCCCCCC(=O)OCC(O)COC(=O)CCCCCCCC=CCCCCCCCC (centres undefined) | 20 to 22
38 | N#Cc1ccc(N2CCN(Cc3cnc4c(c3)NC(=O)[C@@H]3CCCN43)CC2)nc1 | 252 to 256
39 | OC(CSc1nccs1)(Cn1cncn1)c1ccc(Cl)cc1Cl (centres undefined) | 110 to 111
40 | Cc1cc(NC(=O)C(C)(O)COc2cccc(Cl)c2)ccc1[N+](=O)[O-] (centres undefined) | 104 to 107
41 | COC(=O)c1cc(-c2ccccc2Cl)c(=O)n2ncc3ccc(Cl)cc3c12 | 200 to 202
42 | NC(=O)c1nc[nH]c1F | 253 to 254
43 | CCC(=O)Nc1c(C(=O)c2cccc(Cl)c2)[nH]c2ccc(Cl)cc12 | 206 to 208
44 | CC(C)(O)Cn1c(CO)nc2c(N)nc3cc(CCC(=O)N4CCOCC4)ccc3c21 | 223 to 225
45 | CC(=O)Nc1ccc(C(C)=O)cc1CN(C)C | 68 to 72
46 | O=c1c(Br)c(OCc2ccc(F)c(F)c2)ccn1Cc1cccc(F)c1 | 172 to 174
47 | COc1ccc(-c2c(Cl)c(CCl)nc3cc(OC)c(OC)cc23)cc1OC | 206 to 207
48 | CC(=O)COc1ccc(O)cc1 | 110 to 112
49 | CC1(C)C(=O)Oc2ccc3cc(C#N)c(C(n4cncn4)n4cncn4)cc3c21 | 240 to 242
50 | Cn1c(COc2ccc(C#N)cc2)nc2nc(CO)ccc21 | 172
51 | NC(=S)c1ncn2c1[C@@H]1CCN1C(=O)c1c(Cl)cccc1-2 | 250 to 253
52 | CCN(C(=O)C(F)(F)F)c1cc(C)nc(Oc2c(C)cc(C)cc2C)c1C | 110 to 111

Row | SMILES | melting point [°C]
53 | COc1cccc(N2CC(=O)N(c3ccc(S(N)(=O)=O)cc3Cl)C2)c1 | 200 to 203
54 | CCCOCc1cc(OC)c(-c2ccc(C[C@H](NC(=O)c3c(Cl)cccc3Cl)C(=O)O)cc2)c(OC)c1 | 183 to 186
55 | COc1ccc2c(C)c(C(=O)C34CC5CC(CC(C5)C3)C4)oc2c1 | 173 to 175
56 | CCCCC(C)(C)C(NC(=O)c1ccc(Cl)cc1)NC(=NC#N)Nc1cccnc1 (centres undefined) | 168 to 170
57 | CC(=O)Nc1ccc2c(c1)CC(CN1CCC(c3c[nH]c4cc(Cl)ccc34)CC1)C2 (centres undefined) | 151 to 152
58 | O=C1CCC(c2c[nH]c3ccccc23)CC1 | 123 to 125
59 | CS(=O)(=O)Nc1ccccc1Sc1c(C(=O)O)sc2cc(OCc3cccnc3)ccc12 | 258 to 260
60 | CCN(C)c1nc(-c2ccc(OC)c(OC)c2)nc2sc(C#N)c(C)c12 | 133 to 135
61 | O=C1c2nccc(Cl)c2-c2nc3ccccc3c3ccnc1c23 | > 260
62 | CC(=O)N(C(C)=O)c1c(C#N)cnn1-c1c(F)c(F)c(C)c(F)c1F | 132 to 133
63 | CC(C)C1CNCc2cccc3[nH]c(=O)n1c23 (centres undefined) | 167
64 | COc1ccc(C(=O)Nc2ccccc2)cc1Nc1ccc(C)cc1 | 187 to 188
65 | CS(=O)(=O)CCCOc1cccc2c1ccn2-c1ccnc(NC2CCC(C(=O)N3CCC(CN)CC3)CC2)n1 (centres undefined) | 124 to 126
66 | COCc1cnc2c([N+](=O)[O-])ccc(C)c2c1Cl | 120 to 124
67 | N#Cc1sccc1[N+](=O)[O-] | 87 to 88
68 | COC(=O)c1ccc(OCC2CC(=O)N(c3ccc(OCCO)cc3)C2)cc1 (centres undefined) | 129 to 131
69 | COC(=O)Cc1nc(N)cc(OC)n1 | 91 to 94
70 | C#CCn1cncc1CO | 91 to 92.5
71 | COc1cccnc1C(O)c1cc(F)ccc1F (centres undefined) | 94 to 95
72 | CCCCn1sc2nccn2c1=O | 142 to 143
73 | Cn1c(Br)c(C#N)c(Br)c1C#N | 175 to 178
74 | CCn1cnc2c(Nc3ccccc3)nc(Cl)nc21 | 158
75 | Fc1ccc(-c2cc(C(F)(F)F)n3cnc(-c4ccncc4)c3n2)cc1Cl | 266
76 | CCc1cc(OCc2ccccc2)ccc1C(=O)O | 132 to 133
77 | CCC(C)(C)NC(=S)Nc1cc(Cl)cc(Cl)c1 | 134 to 136
78 | COc1ccc2[nH]c(-c3cccc(F)c3)cc(=O)c2c1OP(=O)(O)O | 179 to 181

Row | SMILES | melting point [°C]
79 | O=[N+]([O-])c1ccc2[nH]c(C(F)(F)F)c([N+](=O)[O-])c2c1 | 225 to 228
80 | CON(C)C(=O)c1cc(S(N)(=O)=O)sc1Cl | 223 to 225
81 | COC(=O)Cc1cc(OC)c(OC)cc1[N+](=O)[O-] | 110 to 111
82 | CSC1=NC2=NC3=C(CNCC3=O)CN2N1 | 266 to 269
83 | CCc1nc(OC)c(NC(=O)N2CCN(c3cc(OC)cc(OC)c3)CC2)cc1C | 115 to 116
84 | COc1cc([N+](=O)[O-])c2nccc(C)c2c1Oc1cccc(C(F)(F)F)c1 | 206 to 208
85 | c1ccc2cc(N3CCNCC3)ncc2c1 | 95 to 96
86 | CCCc1c2cc(C(=O)OCC)oc2cc2c(=O)cc(C(=O)OCC)oc12 | 145 to 147
87 | Cc1c(C)n(CC2CC2C)c2c(OCc3ccc(F)cc3F)nncc12 (centres undefined) | 101 to 102
88 | CC(=O)Oc1ccc(-c2ccc3oc(C(=O)O)cc3c2)cc1 | 251 to 254
89 | COC(=O)c1ccc(Cn2c(=O)c3cc(C(=O)NCc4ccc(OC)cc4)sc3n(C)c2=O)cc1OC | 201 to 203
90 | CCOC(=O)c1cnn(-c2ccc(C)cc2)n1 | 61 to 62
91 | COCc1ccsc1-c1nsc2ccc(-n3c(=O)cc(C(F)(F)F)n(C)c3=O)cc12 | 131 to 133
92 | CCCCC[C@@H](CNC(=O)Nc1c(OC(C)C)c(C)nn1-c1ccccc1)c1cccc2c1OCO2 | 126
93 | FC(F)(F)c1cnc(-c2ccc(Cl)c(CBr)c2)c(Cl)c1 | 71 to 72
94 | CCCCOC(=O)Nc1cccc(C(=O)C=CN(C)C)c1 | 115 to 116
95 | CS(=O)(=O)c1ccc(-c2cc(C(N)=O)nn2-c2ccc(C(=O)O)cc2)cc1 | 292 to 293
96 | OCc1cc2c(F)ccc(Cl)c2s1 | 63 to 64
97 | O=CN1CCn2nccc21 | 78 to 80
98 | CCCc1c(C(=O)N2CCOCC2)c2ccc(C(N)=O)cc2n1Cc1ccccc1Cl | 229 to 230
99 | CCOC(=O)C(CC(=O)O)(Cc1cn(C)c2ccccc12)C(=O)OCC | 127 to 130
100 | CNC(=O)Nc1ccc2c(c1Cl)C(c1ccccc1F)=NCC(=O)N2C | 145 to 160
101 | CC1=C(c2ccncc2Cl)SCC(=O)N1 | 169 to 171
102 | CC1(C)OCc2cccc(Cc3c[nH]cn3)c2O1 | 160 to 170
103 | CCN(CC)CCc1cccc(Nc2ncc3c(n2)N(c2cccc(C#N)c2)C(=O)N(c2ccc(OC)cc2)C3C)c1 (centres undefined) | 128 to 145
104 | COc1ccc(Cn2cc3nc(Cl)nc(Cl)c3n2)cc1 | 108 to 109
